Measurements published in US12180187B2, “1-phenyl-5-azinylpyrazolyl-3-oxyalkyl acids and their use for controlling unwanted plant growth” (BAYER AKTIENGESELLSCHAFT, priority 2019, dated 2024).

Assays:
[1] = tested on: AMARE; test: Pre-emergence action at 320 g/ha against AMARE; type: in vivo, Amaranthus retroflexus; settings: visual scoring after about 3 weeks vs untreated controls
Outline: (§1)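 Sow seeds, cover with soil, spray soil surface (WP/EC, 0.5% additive, 600 l/ha water), hold in greenhouse ~3 wk, then rate % activity visually against untreated controls.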

[2] = tested on: MATIN; test: Pre-emergence action against MATIN, 1280 g/ha; type: in vivo, Tripleurospermum inodorum (Matricaria inodora); settings: scored visually after about 3 weeks vs untreated controls (100% = plants have died)
Outline: (§2)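 Activity was scored visually as percent versus untreated controls about 3 weeks after treatment (100% = dead plants, 0% = control-like). Compounds, formulated as wettable powders or emulsion concentrates, were sprayed onto the covering soil over freshly sown seeds in sandy loam, with 0.5% additive and 600 L/ha water.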

[3] = tested on: STEME; test: Pre-emergence action against STEME, 1280 g/ha; type: in vivo, Stellaria media; settings: scored visually after about 3 weeks vs untreated controls (100% = plants have died)
Outline: as §2

[4] = tested on: PHBPU; test: Pre-emergence action at 320 g/ha against PHBPU; type: in vivo; settings: visual scoring after about 3 weeks vs untreated controls
Outline: as §1

[5] = tested on: ALOMY; test: Pre-emergence action against ALOMY, 1280 g/ha; type: in vivo, Alopecurus myosuroides; settings: visual scoring after about 3 weeks vs untreated controls, 100% = plants have died, 0% = like control plants
Outline: as §2

[6] = tested on: LOLRI; test: Pre-emergence action at 320 g/ha against LOLRI; type: in vivo, Lolium rigidum; settings: visual scoring after about 3 weeks vs untreated controls
Outline: as §1

[7] = tested on: ALOMY; test: Post-emergence action against ALOMY, 1.28 kg/ha; type: in vivo, Alopecurus myosuroides; settings: dosage 1280 g/ha, visual rating about 3 weeks after treatment vs untreated controls
Outline: (§3)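 Foliar application at the one-leaf stage: compound as WP or EC in water with 0.5% additive, sprayed at 600 L/ha. Plants are kept about 3 weeks in the greenhouse, then % herbicidal action is estimated visually (100% = death).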

[8] = tested on: ALOMY; test: Pre-emergence action at 320 g/ha against ALOMY; type: in vivo, Alopecurus myosuroides; settings: scored visually after about 3 weeks vs untreated controls (100% = plants have died)
Outline: as §1

[9] = tested on: DIGSA; test: Pre-emergence action against DIGSA, 1280 g/ha; type: in vivo, Digitaria sanguinalis; settings: visual scoring after about 3 weeks vs untreated controls, 100% = plants have died, 0% = like control plants
Outline: as §2

[10] = tested on: ABUTH; test: Post-emergence action against ABUTH, 1.28 kg/ha; type: in vivo, Abutilon theophrasti; settings: dosage 1280 g/ha, visual rating about 3 weeks after treatment vs untreated controls (100% = plants died)
Outline: as §3

[11] = tested on: ABUTH; test: Pre-emergence action against ABUTH, 1280 g/ha; type: in vivo, Abutilon theophrasti; settings: scored visually after about 3 weeks vs untreated controls (100% = plants have died)
Outline: as §2

[12] = tested on: KCHSC; test: Post-emergence action against KCHSC, 1.28 kg/ha; type: in vivo, Bassia scoparia; settings: dosage 1280 g/ha, visual rating about 3 weeks after treatment vs untreated controls (100% = plants died)
Outline: as §3

[13] = tested on: LOLRI; test: Pre-emergence action against LOLRI, 1280 g/ha; type: in vivo, Lolium rigidum; settings: visual scoring after about 3 weeks vs untreated controls, 100% = plants have died, 0% = like control plants
Outline: as §2

[14] = tested on: DIGSA; test: Post-emergence action against DIGSA, 1.28 kg/ha; type: in vivo, Digitaria sanguinalis; settings: dosage 1280 g/ha, visual rating about 3 weeks after treatment vs untreated controls
Outline: as §3

[15] = tested on: DIGSA; test: Pre-emergence action at 320 g/ha against DIGSA; type: in vivo, Digitaria sanguinalis; settings: visual scoring after about 3 weeks vs untreated controls
Outline: as §1

[16] = tested on: MATIN; test: Post-emergence action against MATIN, 1.28 kg/ha; type: in vivo, Tripleurospermum inodorum (Matricaria inodora); settings: dosage 1280 g/ha, visual rating about 3 weeks after treatment vs untreated controls (100% = plants died)
Outline: as §3

[17] = tested on: SETVI; test: Pre-emergence action against SETVI, 1280 g/ha; type: in vivo, Setaria viridis; settings: visual scoring after about 3 weeks vs untreated controls, 100% = plants have died, 0% = like control plants
Outline: as §2

[18] = tested on: VERPE; test: Post-emergence action against VERPE, 1.28 kg/ha; type: in vivo, Veronica persica; settings: dosage 1280 g/ha, visual rating about 3 weeks after treatment vs untreated controls (100% = plants died)
Outline: as §3

[19] = tested on: AVEFA; test: Pre-emergence action at 320 g/ha against AVEFA; type: in vivo; settings: visual scoring after about 3 weeks vs untreated controls
Outline: as §1

[20] = tested on: VIOTR; test: Pre-emergence action at 320 g/ha against VIOTR; type: in vivo, Viola tricolor; settings: dosage 320 g/ha
Outline: as §1

[21] = tested on: POAAN; test: Pre-emergence action against POAAN, 1280 g/ha; type: in vivo, Poa annua; settings: visual scoring after about 3 weeks vs untreated controls, 100% = plants have died, 0% = like control plants
Outline: as §2

[22] = tested on: VERPE; test: Pre-emergence action at 320 g/ha against VERPE; type: in vivo, Veronica persica; settings: visual scoring after about 3 weeks vs untreated controls
Outline: as §1

[23] = tested on: LOLRI; test: Post-emergence action against LOLRI, 1.28 kg/ha; type: in vivo, Lolium rigidum; settings: dosage 1280 g/ha, visual rating about 3 weeks after treatment vs untreated controls
Outline: as §3

[24] = tested on: ECHCG; test: Pre-emergence action against ECHCG, 1280 g/ha; type: in vivo, Echinochloa crus-galli; settings: visual scoring after about 3 weeks vs untreated controls, 100% = plants have died, 0% = like control plants
Outline: as §2

[25] = tested on: POLCO; test: Pre-emergence action at 320 g/ha against POLCO; type: in vivo, Fallopia convolvulus (Polygonum convolvulus); settings: visual scoring after about 3 weeks vs untreated controls
Outline: as §1

[26] = tested on: AMARE; test: Pre-emergence action against AMARE, 1280 g/ha; type: in vivo, Amaranthus retroflexus; settings: scored visually after about 3 weeks vs untreated controls (100% = plants have died)
Outline: as §2

[27] = tested on: STEME; test: Post-emergence action against STEME, 1.28 kg/ha; type: in vivo, Stellaria media; settings: dosage 1280 g/ha, visual rating about 3 weeks after treatment vs untreated controls (100% = plants died)
Outline: as §3

[28] = tested on: SETVI; test: Pre-emergence action at 320 g/ha against SETVI; type: in vivo, Setaria viridis; settings: visual scoring after about 3 weeks vs untreated controls
Outline: as §1

[29] = tested on: ABUTH; test: Pre-emergence action at 320 g/ha against ABUTH; type: in vivo, Abutilon theophrasti; settings: greenhouse, scored visually after about 3 weeks vs untreated controls, 100% = plants have died, 0% = like control plants
Text: b) Seeds of monocotyledonous and dicotyledonous weed plants and crop plants are placed in plastic or organic planting pots and covered with soil. The compounds of the invention, formulated in the form of wettable powders (WP) or as emulsion concentrates (EC), are then applied onto the surface of the covering soil as aqueous suspension or emulsion with addition of 0.5% additive at a water application rate of 600 l/ha (converted). After the treatment, the pots are placed in a greenhouse and kept under good growth conditions for the trial plants. After about 3 weeks, the effect of the preparations is scored visually in comparison with untreated controls as percentages. For example, 100% activity=the plants have died, 0% activity=like control plants. Tables 13 to 26 below show the effects of selected compounds of the general formula (I) on various harmful plants and at an application rate corresponding to 320 g/ha, which were obtained by the experimental procedure mentioned above.

[30] = tested on: MATIN; test: Pre-emergence action at 320 g/ha against MATIN; type: in vivo, Tripleurospermum inodorum (Matricaria inodora); settings: visual scoring after about 3 weeks vs untreated controls
Outline: as §1

[31] = tested on: VERPE; test: Pre-emergence action against VERPE, 1280 g/ha; type: in vivo, Veronica persica; settings: scored visually after about 3 weeks vs untreated controls (100% = plants have died)
Outline: as §2

[32] = tested on: KCHSC; test: Pre-emergence action against KCHSC, 1280 g/ha; type: in vivo, Bassia scoparia; settings: scored visually after about 3 weeks vs untreated controls (100% = plants have died)
Outline: as §2

[33] = tested on: ECHCG; test: Post-emergence action against ECHCG, 1.28 kg/ha; type: in vivo, Echinochloa crus-galli; settings: dosage 1280 g/ha, visual rating about 3 weeks after treatment vs untreated controls
Outline: as §3

[34] = tested on: AMARE; test: Post-emergence action against AMARE, 1.28 kg/ha; type: in vivo, Amaranthus retroflexus; settings: dosage 1280 g/ha, visual rating about 3 weeks after treatment vs untreated controls (100% = plants died)
Outline: as §3

[35] = tested on: POAAN; test: Post-emergence action against POAAN, 1.28 kg/ha; type: in vivo, Poa annua; settings: dosage 1280 g/ha, visual rating about 3 weeks after treatment vs untreated controls
Outline: as §3

C[C@@H](Oc1nn(-c2ccccc2F)c(-c2cncnc2)c1Cl)C(=O)O [VI-018]
90%: Pre-emergence action against PHBPU in % [4] | Post-emergence action against ABUTH [10] | Pre-emergence action against ABUTH [11] | Post-emergence action against KCHSC [12] | Pre-emergence action against VIOTR in % [20] | Post-emergence action against LOLRI [23] | Pre-emergence action against POLCO in % [25] | Post-emergence action against STEME [27] | Pre-emergence action against MATIN in % [30] | Post-emergence action against AMARE [34]
80%: Pre-emergence action against AVEFA in % [19] | Pre-emergence action against VERPE in % [22] | Pre-emergence action at 320 g/ha against ABUTH in % [29]
100%: Pre-emergence action against AMARE in % [1] | Pre-emergence action against MATIN [2] | Pre-emergence action against STEME [3] | Pre-emergence action against ALOMY [5] | Pre-emergence action against LOLRI in % [6] | Post-emergence action against ALOMY [7] | Pre-emergence action at 320 g/ha against ALOMY in % [8] | Pre-emergence action against DIGSA [9] | Pre-emergence action against LOLRI [13] | Post-emergence action against DIGSA [14] | Pre-emergence action against DIGSA in % [15] | Post-emergence action against MATIN [16] | Pre-emergence action against SETVI [17] | Post-emergence action against VERPE [18] | Pre-emergence action against POAAN [21] | Pre-emergence action against ECHCG [24] | Pre-emergence action against AMARE [26] | Pre-emergence action against SETVI in % [28] | Pre-emergence action against VERPE [31] | Pre-emergence action against KCHSC [32] | Post-emergence action against ECHCG [33] | Post-emergence action against POAAN [35]
